In ChEMBL document CHEMBL4602681, “Quintaquinone, a Merosesquiterpene from the Yellow Sponge Verongula cf. rigida Esper” (J Nat Prod, 2020) one finds inhibition and IC50 data, which are given here for ten compounds.

pIC50: −log10 of the molar value.

One assay deals with LNCaP. Kind of assay: Inhibition of steroid 5-alpha-reductase in human LNCAP cells assessed as reduction in 5- dihydrotestosterone formation at 100 uM incubated for 60 mins by LC-MS analysis relative to control. The format is cell-based.
The subject of a further assay is PC-3. Put plainly: Antiproliferative activity against human PC3 cells assessed as reduction in cell viability by MTT assay. The format is functional, cell-based. (Formazan colour is commonly taken as a measure of viable cells.)
A further assay has as its system HeLa. Put plainly: Antiproliferative activity against human HeLa cells assessed as reduction in cell viability after 72 hrs by sulforhodamine B assay. Format: functional, cell-based. A general note: In SRB staining, fixed cells bind dye roughly in proportion to their protein.
For another assay, the system named is MCF7. Kind of assay: Antiproliferative activity against human MCF7 cells assessed as reduction in cell viability after 72 hrs by sulforhodamine B assay. Format: functional, cell-based. Conditions: MCF7, 72 h.
Assay [1] is described as follows: Inhibition of steroid 5-alpha-reductase in human LNCAP cells assessed as reduction in 5- dihydrotestosterone formation incubated for 60 mins by LC-MS analysis. The format is cell-based. The note with it: 1 h.

The inhibition is the drop in the measured response relative to a control, in per cent. As a reminder, the pIC50 is the negative decadic logarithm of the IC50, by convention in mol/L. In the case of `COC1=CC(=O)C(O)=C(C/C=C(\C)CC/C=C(\C)CCC=C(C)C)C1=O`, the inhibition in the assay on LNCaP is below 50%. Also, the pIC50 with PC-3, in the assay with HeLa and with MCF7 was below 5.00 throughout.

Turning to `COC1=CC(=O)C2=C(C[C@H]3[C@]4(C)CCCC(C)(C)[C@H]4CC[C@@]3(C)O2)C1=O`, the negative logarithm of the IC50 (pIC50) in assay [1] is 6.14; in the assay with PC-3, below 5.00; in the assay on HeLa it was below 5.00; in the assay with MCF7, below 5.00.

Turning to `C=C1CCC[C@H]2[C@](C)(CC3=C(O)C(=O)C(CCCCC(C)=O)=C(OC)C3=O)[C@@H](C)CC[C@]12C`, the inhibition in the assay on LNCaP was below 50%. Besides, the pIC50 in the assay on PC-3, with HeLa and in the assay on MCF7 was below 5.00 in each case.

As to `C=C1CCC[C@H]2[C@](C)(CC3=C(O)C(=O)C=C(NCCc4ccccc4)C3=O)[C@@H](C)CC[C@]12C`, the inhibition with LNCaP is below 50%. Besides, the pIC50 in the assay on PC-3, in the assay with HeLa and in the assay with MCF7 was below 5.00 each time.

As to `COC(=O)c1cc(O)c(O)c(C[C@H]2C(C)=CC[C@H]3C(C)(C)CCC[C@]23C)c1`, the inhibition in the assay on LNCaP is below 50%. In addition, the pIC50 with PC-3, in the assay on HeLa and in the assay on MCF7 was below 5.00 throughout.

With `CC(C)(C)NC(=O)[C@H]1CC[C@H]2[C@@H]3CC[C@H]4NC(=O)C=C[C@]4(C)[C@H]3CC[C@]12C` [FINASTERIDE], the negative-log IC50 (pIC50) in assay [1] was 6.12.

Take `C=C1CCC[C@H]2[C@](C)(CC3=C(O)C(=O)C=C(NCC(C)C)C3=O)[C@@H](C)CC[C@]12C`: in the assay with LNCaP, the inhibition was below 50%. For the same compound, the negative logarithm of the IC50 (pIC50) in the assay on PC-3, in the assay on HeLa and with MCF7 was below 5.00 each time.

Turning to `C=C1CCC[C@H]2[C@](C)(CC3=C(O)C(=O)C=C(OC)C3=O)[C@@H](C)CC[C@@]12C`, the inhibition in the assay with LNCaP was below 50%. For the same compound, the pIC50 in the assay with PC-3, in the assay with HeLa and with MCF7 was below 5.00 throughout.

In the case of `COC(=O)c1cc(C[C@H]2C(C)=CC[C@H]3C(C)(C)CCC[C@]23C)c(O)c(O)c1O`, the inhibition in the assay with LNCaP was below 50%. For the same compound, the pIC50 in the assay on PC-3, in the assay with HeLa and in the assay with MCF7 was below 5.00 throughout.

`C=C1CCC[C@H]2[C@](C)(CC3=C(O)C(=O)C=C(OC)C3=O)[C@@H](C)CC[C@]12C` [ILIMAQUINONE]: the inhibition with LNCaP is below 50%. The negative-log IC50 (pIC50) in the assay on PC-3, in the assay with HeLa and in the assay with MCF7 was below 5.00 in each case.
